We go through 26 compounds from patent publication US9067898B1, “Isothiazole derivatives as GPR120 agonists for the treatment of type II diabetes” (Janssen Pharmaceutica NV, priority 2014, dated 2015).

In the test the target is T1, long form of human GPR120 (Homo sapiens, UniProt Q5NUL3).
T1 construct: host or cells: PathHunter CHO-K1 GPR120 β-Arrestin Cell Line
T1 sequence (Q5NUL3 1-377 isoform Q5NUL3-1): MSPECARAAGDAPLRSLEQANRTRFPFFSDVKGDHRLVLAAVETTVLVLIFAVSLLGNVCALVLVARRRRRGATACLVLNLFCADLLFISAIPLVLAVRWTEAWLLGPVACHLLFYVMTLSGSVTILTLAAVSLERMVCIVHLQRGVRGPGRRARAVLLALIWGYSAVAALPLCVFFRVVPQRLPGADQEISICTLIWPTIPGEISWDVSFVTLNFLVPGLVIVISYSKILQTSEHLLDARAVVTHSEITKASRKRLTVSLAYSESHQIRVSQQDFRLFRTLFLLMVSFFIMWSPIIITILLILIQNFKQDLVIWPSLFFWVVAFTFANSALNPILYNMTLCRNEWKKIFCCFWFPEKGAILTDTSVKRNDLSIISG
T1 sequence (P32121 whole entry partner): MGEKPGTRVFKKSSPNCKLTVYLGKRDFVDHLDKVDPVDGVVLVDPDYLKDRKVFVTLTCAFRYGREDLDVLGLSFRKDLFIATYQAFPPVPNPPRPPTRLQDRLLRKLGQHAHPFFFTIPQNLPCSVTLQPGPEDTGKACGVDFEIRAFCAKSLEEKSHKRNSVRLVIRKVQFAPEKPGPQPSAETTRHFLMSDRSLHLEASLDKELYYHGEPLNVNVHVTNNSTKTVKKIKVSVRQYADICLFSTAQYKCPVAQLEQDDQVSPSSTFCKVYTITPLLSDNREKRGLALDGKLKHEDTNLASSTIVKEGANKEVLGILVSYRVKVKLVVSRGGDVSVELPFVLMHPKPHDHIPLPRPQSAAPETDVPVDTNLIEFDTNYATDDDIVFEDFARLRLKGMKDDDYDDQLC
The test is described as follows: Human GPR120 DiscoveRx PathHunter Beta-Arrestin assay, Procedure β-arrestin A. The test is classed as cell-based. As to conditions: PathHunter CHO-K1 GPR120 β-Arrestin cell line, 3000 cells per well, read-out: hGPR120 β-arrestin A EC50. The method, boiled down: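 PathHunter CHO-K1 β-arrestin cells expressed long-form GPR120 (Procedure A, 3000 cells/well) or short-form GPR120 (Procedure B, 5000 cells/well). Compounds were serially diluted from 25 µM and incubated 90 min at 37 °C in HBSS/20 mM HEPES/0.1% BSA, pH 7.4. Luminescence was read after 60 min detection at RT; EC50 comes from % activity versus positive control, Hill slope fixed at 1.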
On to `CCc1cc(CCC(=O)O)ccc1OCc1c(-c2ccc(Cl)cc2)nsc1C(F)(F)F` [Cpd 162, 3-(4-[[3-(4-chlorophenyl)-5-(trifluoromethyl)-1,2-thiazol-4-yl]methoxy]-3-ethylphenyl)propanoic acid], for which the EC50 (in general, the concentration at which the effect is half-maximal) stood at 156 nM.
To `Cc1ccccc1-c1snc(Cl)c1COc1c(F)cc(CCC(=O)O)cc1F` [Cpd 193, 3-(4-[[3-chloro-5-(2-methylphenyl)-1,2-thiazol-4-yl]methoxy]-3,5-difluorophenyl)propanoic acid] belongs 322 nM; to “3-(4-[[3-(4-ethylphenyl)-5-(trifluoromethyl)-1,2-thiazol-4-yl]methoxy]-1-benzothiophen-7-yl)propanoic acid [Cpd 92]”, 28 nM; to “3-(4-[[3-(4-chlorophenyl)-5-(trifluoromethyl)-1,2-thiazol-4-yl]methoxy]-3-methylphenyl)propanoic acid [Cpd 235]”, 431 nM.
Take `O=C(O)CCc1cc(F)c(OCc2c(-c3ccc(Cl)c(F)c3)nsc2C(F)(F)F)c(F)c1` [Cpd 67, 3-(4-((3-(4-chloro-3-fluorophenyl)-5-(trifluoromethyl)isothiazol-4-yl)methoxy)-3,5-difluorophenyl)propanoic acid]: the EC50 is 86 nM.
To `Cc1c(CCC(=O)O)ccc(OCc2c(-c3ncc(Cl)cc3F)nsc2C(F)(F)F)c1C` [Cpd 180, 3-(4-((3-(5-chloro-3-fluoropyridin-2-yl)-5-(trifluoromethyl)isothiazol-4-yl)methoxy)-2,3-dimethylphenyl)propanoic acid] belongs 568 nM; to `OCCCc1cc(F)c(OCc2c(-c3ccc(Cl)cc3)nsc2C(F)(F)F)c(F)c1` [Cpd 100, 3-(4-[[3-(4-chlorophenyl)-5-(trifluoromethyl)-1,2-thiazol-4-yl]methoxy]-3,5-difluorophenyl)propan-1-ol], 97 nM; to `CCc1ccc(-c2nsc(C(F)(F)F)c2COc2ccc(CCC(=O)O)c(F)c2F)cc1` [Cpd 73, 3-(4-((3-(4-ethylphenyl)-5-(trifluoromethyl)isothiazol-4-yl)methoxy)-2,3-difluorophenyl)propanoic acid], 134 nM.
To `O=C(O)CCc1cc(F)c(OCc2c(-c3ccc(Cl)cc3)nsc2C(F)(F)F)c(F)c1` [Cpd 79, 3-(4-[[3-(4-chlorophenyl)-5-(trifluoromethyl)-1,2-thiazol-4-yl]methoxy]-3,5-difluorophenyl)propanoic acid] belongs 71 nM.
To `O=C(O)CCc1cc(F)c(OCc2c(-c3ncc(Cl)cc3F)nsc2C(F)(F)F)c(F)c1` [Cpd 153, 3-(4-((3-(5-chloro-3-fluoropyridin-2-yl)-5-(trifluoromethyl)isothiazol-4-yl)methoxy)-3,5-difluorophenyl)propanoic acid] belongs 189 nM.
Consider `O=C(O)CCc1cc(F)c(OCc2c(-c3ccc(Cl)cc3)nsc2C(F)(F)F)c(F)c1F` [Cpd 116, 3-(4-((3-(4-chlorophenyl)-5-(trifluoromethyl)isothiazol-4-yl)methoxy)-2,3,5-trifluorophenyl)propanoic acid], for which the EC50 worked out at 112 nM.
Take `OCCCc1cc(F)c(OCc2c(-c3ccc4c(c3)OCO4)nsc2C(F)(F)F)c(F)c1` [Cpd 93, 3-(4-[[3-(2H-1,3-benzodioxol-5-yl)-5-(trifluoromethyl)-1,2-thiazol-4-yl]methoxy]-3,5-difluorophenyl)propan-1-ol]: the EC50 was 38 nM.
To `O=C(O)CCc1cc(F)c(OCc2c(C3CCCC3)nsc2C(F)(F)F)c(F)c1` [Cpd 71, 3-(4-[[3-cyclopentyl-5-(trifluoromethyl)-1,2-thiazol-4-yl]methoxy]-3,5-difluorophenyl)propanoic acid] belongs 278 nM.
As to `Cc1c(CCC(=O)O)ccc(OCc2c(-c3ccccc3)nsc2C(F)(F)F)c1C` [Cpd 134, 3-(2,3-dimethyl-4-[[3-phenyl-5-(trifluoromethyl)-1,2-thiazol-4-yl]methoxy]phenyl)propanoic acid], the EC50 was found to be 252 nM.
Take `O=C(O)CCc1cc(F)c(OCc2c(-c3ccc(Cl)c(F)c3)nsc2C(F)(F)F)c(F)c1F` [Cpd 138, 3-(4-((3-(4-chloro-3-fluorophenyl)-5-(trifluoromethyl)isothiazol-4-yl)methoxy)-2,3,5-trifluorophenyl)propanoic acid]: the EC50 is 114 nM.
To `OCC#Cc1cc(F)c(OCc2c(-c3ccc(Cl)cc3)nsc2C(F)(F)F)c(F)c1` [Cpd 213, 3-(4-[[3-(4-chlorophenyl)-5-(trifluoromethyl)-1,2-thiazol-4-yl]methoxy]-3,5-difluorophenyl)prop-2-yn-1-ol] belongs 59 nM.
`OCCCc1ccc(OCc2c(Cl)nsc2-c2ccc(Cl)cc2)c(F)c1F` [Cpd 102, 3-(4-((3-chloro-5-(4-chlorophenyl)isothiazol-4-yl)methoxy)-2,3-difluorophenyl)propan-1-ol]: the EC50 came to 40 nM.
To `O=C(O)CCc1c(F)c(F)c(OCc2c(-c3ccc(Cl)cc3)nsc2C(F)(F)F)c(F)c1F` [Cpd 152, 3-(4-((3-(4-chlorophenyl)-5-(trifluoromethyl)isothiazol-4-yl)methoxy)-2,3,5,6-tetrafluorophenyl)propanoic acid] belongs 183 nM; to `Cc1ccc(-c2nsc(C(F)(F)F)c2COc2c(F)cc(CCC(=O)O)cc2F)c(F)c1` [Cpd 65, 3-(3,5-difluoro-4-[[3-(2-fluoro-4-methylphenyl)-5-(trifluoromethyl)-1,2-thiazol-4-yl]methoxy]phenyl)propanoic acid], 168 nM.
To `CCc1ccc(-c2cc(F)sc2COc2ccc(CCC(=O)O)c(C)c2C)cc1` [Cpd 1, 3-(4-[[3-(4-ethylphenyl)-5-fluorothiophen-2-yl]methoxy]-2,3-dimethylphenyl)propanoic acid] belongs 218 nM; to `O=C(O)CCc1cc(F)c(OCc2c(-c3ccc(Cl)cc3F)nsc2C(F)(F)F)c(F)c1` [Cpd 74, 3-(4-((3-(4-chloro-2-fluorophenyl)-5-(trifluoromethyl)isothiazol-4-yl)methoxy)-3,5-difluorophenyl)propanoic acid], 143 nM; to `CC(Cc1cc(F)c(OCc2c(-c3ccc(Cl)cc3)nsc2C(F)(F)F)c(F)c1)C(=O)O` (centres unmarked) [Cpd 108, 3-(4-[[3-(4-chlorophenyl)-5-(trifluoromethyl)-1,2-thiazol-4-yl]methoxy]-3,5-difluorophenyl)-2-methylpropanoic acid], 261 nM.
To `Cc1c(CCC(=O)O)ccc(OCc2c(-c3ccc(Cl)cc3)nsc2C(F)(F)F)c1C` [Cpd 142, 3-(4-((3-(4-chlorophenyl)-5-(trifluoromethyl)isothiazol-4-yl)methoxy)-2,3-dimethylphenyl)propanoic acid] belongs 141 nM; to `CCc1ccc(-c2snc(Cl)c2COc2ccc(CCC(=O)O)c(C)c2C)cc1` [Cpd 85, 3-(4-[[3-chloro-5-(4-ethylphenyl)-1,2-thiazol-4-yl]methoxy]-2,3-dimethylphenyl)propanoic acid], 166 nM; to “3-(4-[[3-(4-ethylphenyl)-5-(trifluoromethyl)-1,2-thiazol-4-yl]methoxy]-3,5-difluorophenyl)propanoic acid [Cpd 70]”, 97 nM.
On to `OCCCc1cc(F)c(OCc2c(-c3ccc4c(c3)OCO4)csc2C(F)(F)F)c(F)c1` [Cpd 37, 3-(4-((4-(benzo[d][1,3]dioxol-5-yl)-2-(trifluoromethyl)thiophen-3-yl)methoxy)-3,5-difluorophenyl)propan-1-ol], for which the EC50 amounted to 57 nM.
